Laboratory results as given in PubChem BioAssay (NCI).
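Cultured in 96-well plates, cells were exposed to test compound for 48 hours across five concentrations. TGI: total growth inhibition.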

How the values were obtained:
Experiment in all cases: DTP human tumour cell line panel, 48 h
NCI-H522 lung = tested on: NCI-H522 lung
OVCAR-8 ovarian = tested on: OVCAR-8 ovarian
BT-549 breast = tested on: BT-549 breast
UACC-62 melanoma = tested on: UACC-62 melanoma
SF-295 CNS = tested on: SF-295 CNS
NCI-H226 lung = tested on: NCI-H226 lung
SK-MEL-28 melanoma = tested on: SK-MEL-28 melanoma
RPMI-8226 leukemia = tested on: RPMI-8226 leukemia
ACHN renal = tested on: ACHN renal
MDA-MB-231 breast = tested on: MDA-MB-231 breast
A549 NSCLC = tested on: A549 NSCLC
LOX IMVI melanoma = tested on: LOX IMVI melanoma
MCF7 breast = tested on: MCF7 breast
K-562 leukemia = tested on: K-562 leukemia
OVCAR-5 ovarian = tested on: OVCAR-5 ovarian
HCT-15 colon = tested on: HCT-15 colon
HCT-116 colon = tested on: HCT-116 colon
MDA-MB-435 = tested on: MDA-MB-435
U251 CNS = tested on: U251 CNS
PC-3 prostate = tested on: PC-3 prostate
SW-620 colon = tested on: SW-620 colon
CAKI-1 renal = tested on: CAKI-1 renal
SK-OV-3 ovarian = tested on: SK-OV-3 ovarian
RXF 393 renal = tested on: RXF 393 renal
COLO 205 colon = tested on: COLO 205 colon
SF-539 CNS = tested on: SF-539 CNS
M14 melanoma = tested on: M14 melanoma
SN12C renal = tested on: SN12C renal
786-0 renal = tested on: 786-0 renal
HOP-92 NSCLC = tested on: HOP-92 NSCLC
MOLT-4 leukemia = tested on: MOLT-4 leukemia
IGROV1 ovarian = tested on: IGROV1 ovarian
KM12 colon = tested on: KM12 colon
SNB-75 CNS = tested on: SNB-75 CNS
MALME-3M melanoma = tested on: MALME-3M melanoma
HL-60(TB) leukemia = tested on: HL-60(TB) leukemia
OVCAR-3 ovarian = tested on: OVCAR-3 ovarian
NCI/ADR-RES ovarian = tested on: NCI/ADR-RES ovarian
HS 578T breast = tested on: HS 578T breast
HOP-62 NSCLC = tested on: HOP-62 NSCLC
HT29 colon = tested on: HT29 colon
MDA-N = tested on: MDA-N
UACC-257 melanoma = tested on: UACC-257 melanoma
NCI-H23 lung = tested on: NCI-H23 lung
EKVX NSCLC = tested on: EKVX NSCLC
UO-31 renal = tested on: UO-31 renal
OVCAR-4 ovarian = tested on: OVCAR-4 ovarian
DU-145 prostate = tested on: DU-145 prostate
HCC-2998 colon = tested on: HCC-2998 colon
T-47D breast = tested on: T-47D breast
SNB-19 CNS = tested on: SNB-19 CNS
SK-MEL-2 melanoma = tested on: SK-MEL-2 melanoma
SF-268 CNS = tested on: SF-268 CNS
SK-MEL-5 melanoma = tested on: SK-MEL-5 melanoma
TK-10 renal = tested on: TK-10 renal
CCRF-CEM leukemia = tested on: CCRF-CEM leukemia
NCI-H460 lung = tested on: NCI-H460 lung
A498 renal = tested on: A498 renal

## Cc1cc2ncn(C3CCCCO3)c2cc1C (stereo unspecified)
NCI-H522 lung
  TGI: > 100 µM
OVCAR-8 ovarian
  TGI: > 100 µM
BT-549 breast
  TGI: > 100 µM
UACC-62 melanoma
  TGI: > 100 µM
SF-295 CNS
  TGI: > 100 µM
NCI-H226 lung
  TGI: > 100 µM
SK-MEL-28 melanoma
  TGI: > 100 µM
RPMI-8226 leukemia
  TGI: > 100 µM
ACHN renal
  TGI: > 100 µM
MDA-MB-231 breast
  TGI: > 100 µM
A549 NSCLC
  TGI: > 100 µM
LOX IMVI melanoma
  TGI: > 100 µM
MCF7 breast
  TGI: > 100 µM
K-562 leukemia
  TGI: > 100 µM
OVCAR-5 ovarian
  TGI: > 100 µM
HCT-15 colon
  TGI: > 100 µM
HCT-116 colon
  TGI: > 100 µM
MDA-MB-435
  TGI: > 100 µM
U251 CNS
  TGI: > 100 µM
PC-3 prostate
  TGI: > 100 µM
SW-620 colon
  TGI: > 100 µM
CAKI-1 renal
  TGI: > 100 µM
SK-OV-3 ovarian
  TGI: > 100 µM
RXF 393 renal
  TGI: > 100 µM
COLO 205 colon
  TGI: > 100 µM
SF-539 CNS
  TGI: > 100 µM
M14 melanoma
  TGI: > 100 µM
SN12C renal
  TGI: > 100 µM
786-0 renal
  TGI: > 100 µM
HOP-92 NSCLC
  TGI: > 100 µM
MOLT-4 leukemia
  TGI: > 100 µM
IGROV1 ovarian
  TGI: > 100 µM
KM12 colon
  TGI: > 100 µM
SNB-75 CNS
  TGI: > 100 µM
MALME-3M melanoma
  TGI: > 100 µM
HL-60(TB) leukemia
  TGI: > 100 µM
OVCAR-3 ovarian
  TGI: > 100 µM
NCI/ADR-RES ovarian
  TGI: > 100 µM
HS 578T breast
  TGI: > 100 µM
HOP-62 NSCLC
  TGI: > 100 µM
HT29 colon
  TGI: > 100 µM
MDA-N
  TGI: > 100 µM
UACC-257 melanoma
  TGI: > 100 µM
NCI-H23 lung
  TGI: > 100 µM
EKVX NSCLC
  TGI: > 100 µM
UO-31 renal
  TGI: 75.1 µM
OVCAR-4 ovarian
  TGI: > 100 µM
DU-145 prostate
  TGI: > 100 µM
HCC-2998 colon
  TGI: > 100 µM
T-47D breast
  TGI: > 100 µM
SNB-19 CNS
  TGI: > 100 µM
SK-MEL-2 melanoma
  TGI: > 100 µM
SF-268 CNS
  TGI: > 100 µM
SK-MEL-5 melanoma
  TGI: > 100 µM
TK-10 renal
  TGI: > 100 µM
CCRF-CEM leukemia
  TGI: > 100 µM

## Cc1cc(S(=O)(=O)/N=C(/C(=C=[N-])C#N)[n+]2ccc(N(C)C)cc2)c(SCC(=O)O)cc1Cl
NCI-H522 lung
  TGI: > 100 µM
OVCAR-8 ovarian
  TGI: > 100 µM
BT-549 breast
  TGI: > 100 µM
UACC-62 melanoma
  TGI: > 100 µM
SF-295 CNS
  TGI: > 100 µM
NCI-H226 lung
  TGI: > 100 µM
NCI-H460 lung
  TGI: > 100 µM
SK-MEL-28 melanoma
  TGI: > 100 µM
RPMI-8226 leukemia
  TGI: > 100 µM
ACHN renal
  TGI: > 100 µM
MDA-MB-231 breast
  TGI: > 100 µM
A549 NSCLC
  TGI: > 100 µM
MCF7 breast
  TGI: > 100 µM
K-562 leukemia
  TGI: > 100 µM
OVCAR-5 ovarian
  TGI: > 100 µM
HCT-15 colon
  TGI: > 100 µM
HCT-116 colon
  TGI: > 100 µM
MDA-MB-435
  TGI: > 100 µM
U251 CNS
  TGI: > 100 µM
PC-3 prostate
  TGI: > 100 µM
CAKI-1 renal
  TGI: > 100 µM
SK-OV-3 ovarian
  TGI: > 100 µM
RXF 393 renal
  TGI: > 100 µM
COLO 205 colon
  TGI: > 100 µM
SF-539 CNS
  TGI: > 100 µM
M14 melanoma
  TGI: > 100 µM
SN12C renal
  TGI: > 100 µM
786-0 renal
  TGI: > 100 µM
HOP-92 NSCLC
  TGI: 70.4 µM
MOLT-4 leukemia
  TGI: > 100 µM
IGROV1 ovarian
  TGI: > 100 µM
KM12 colon
  TGI: > 100 µM
MALME-3M melanoma
  TGI: 64.5 µM
HL-60(TB) leukemia
  TGI: > 100 µM
OVCAR-3 ovarian
  TGI: > 100 µM
NCI/ADR-RES ovarian
  TGI: > 100 µM
HS 578T breast
  TGI: > 100 µM
HOP-62 NSCLC
  TGI: > 100 µM
HT29 colon
  TGI: > 100 µM
MDA-N
  TGI: > 100 µM
UACC-257 melanoma
  TGI: > 100 µM
NCI-H23 lung
  TGI: > 100 µM
EKVX NSCLC
  TGI: > 100 µM
UO-31 renal
  TGI: > 100 µM
OVCAR-4 ovarian
  TGI: > 100 µM
DU-145 prostate
  TGI: > 100 µM
HCC-2998 colon
  TGI: > 100 µM
T-47D breast
  TGI: > 100 µM
SNB-19 CNS
  TGI: > 100 µM
SK-MEL-2 melanoma
  TGI: > 100 µM
SF-268 CNS
  TGI: > 100 µM
SK-MEL-5 melanoma
  TGI: > 100 µM
TK-10 renal
  TGI: > 100 µM
A498 renal
  TGI: > 100 µM
CCRF-CEM leukemia
  TGI: > 100 µM
